Laboratory results from publication PMC12486805, “Preclinical evaluation of tridecaptin M: in vitro and in vivo efficacy against colistin-resistant Gram-negative bacterial pathogens and pharmacokinetics” (Antimicrobial Agents and Chemotherapy, 2025).
≈ marks a conversion by molar mass, not a printed value. Where two headings read alike, the source gives them in different places. Marks after values point to notes of the source that are not given here. Where a SMILES comes first, the peptide text is derived from it. [ ]: non-standard residue; d: D form. The star is where a group is joined. d(aIle) = CC[C@H](C)[C@@H](N)C(=O)O; X1 = CC[C@H](C)CCCCC(=O)*; dDab = NCC[C@@H](N)C(=O)O; Dab = NCC[C@H](N)C(=O)O

Columns and labels:
CYP2C9 = CYP2C9 (Homo sapiens, UniProt P11712); test: CYP inhibition assay, recombinant isoform, fluorescence; type: biochemical
Chain of CYP2C9 (P11712 whole entry, canonical isoform): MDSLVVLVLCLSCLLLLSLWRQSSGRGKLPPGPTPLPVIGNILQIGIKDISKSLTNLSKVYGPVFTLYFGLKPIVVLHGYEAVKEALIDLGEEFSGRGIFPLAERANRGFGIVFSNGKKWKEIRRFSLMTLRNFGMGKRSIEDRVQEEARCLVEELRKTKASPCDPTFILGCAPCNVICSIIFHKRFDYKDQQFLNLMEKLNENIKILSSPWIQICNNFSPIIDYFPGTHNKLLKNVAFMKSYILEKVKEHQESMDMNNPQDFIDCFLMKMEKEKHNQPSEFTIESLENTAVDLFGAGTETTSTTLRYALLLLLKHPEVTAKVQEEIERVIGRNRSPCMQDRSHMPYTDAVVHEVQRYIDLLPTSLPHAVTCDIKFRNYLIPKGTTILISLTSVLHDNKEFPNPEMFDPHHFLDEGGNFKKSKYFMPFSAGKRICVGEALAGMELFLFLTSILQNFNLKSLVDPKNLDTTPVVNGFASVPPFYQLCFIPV
Procedure: The CYP inhibition assay was performed for test/control inhibitor items in duplicates using a 96-well fluorescence plate. An example of the preparation of CYP inhibition is given below in Table 8.
The plate with CYP master premix with test/control was incubated to allow the test/control samples to interact with CYP enzyme for 10 ± 1 min at 25°C under shaking conditions (400 rpm) using Thermomixer. The assay was initiated by adding 10 µL of a substrate and NADP^+ mixture to all wells, including a vehicle control and an assay blank. The plate was then incubated at 25°C for 25 min with shaking at 400 rpm using a thermomixer. After incubation, the reaction was quenched by adding 50 µL of stop reagent (0.5 M Tris base) to each well. Fluorescence was measured using a microplate reader at excitation/emission wavelengths of 415/460 nm, respectively ([37]).

[1] = rat liver microsomes
Procedure: (§1) For without cofactors, 20 µL of PBS was added instead of pre-incubated cofactors. […] At each specified time, a 100 µL sample was taken, processed through a sample extraction procedure, and submitted for LC-MS/MS analysis ([35]). Half-life (t1/2) of test/control items was determined using the following equation
(§2) where, elimination rate constant (k) = −(slope of linear regression curve).

in vitro = conditions: rat, microsomes
Procedure: as §1, §2

[2] = Intravenous acute toxicity in mice; type: in vivo, Balb/c mice
Procedure: In total, 8–10 week old female Balb/c mice (n = 3) were administered tridecaptin M starting at 15 mg/kg, 25 mg/kg, 50 mg/kg, and 100 mg/kg. […] In this study, we administered 18 mg/kg of colistin to mice intravenously. […] Later, in the second set, intermediate concentrations of 20 mg/kg, 25 mg/kg, 30 mg/kg, 35 mg/kg, and 40 mg/kg doses were also administered to n = 4 mice. In these groups, blood was collected at 24 h post administration or immediately after visible movement stopped (40 mg/kg group), serum was separated and pooled together for each group n = 4, and biochemical serum tests were conducted.

K. pneumoniae = type: cell-based, Klebsiella pneumoniae
Procedure: The MIC for all isolates was determined using the broth microdilution method. This involved preparing CA-MHB medium and serially diluting antibiotic solutions by a factor of two. The test organism was adjusted to a concentration of ≈5 × 10^5 CFU/mL. In a sterile 96-well microtiter plate, 100 µL of CA-MHB, along with 100 µL of each antibiotic, was added, and serial dilutions were made. A 100 µL suspension of the organism was added to each well and mixed, resulting in a total reaction volume of 200 µL per well. The plate was then incubated at 37°C for 16–18 h. The MIC was identified as the lowest concentration of antibiotic that prevented any visible growth of the organism ([16]).

[3] = concentrations well above its MIC; cited from earlier work
[4] = mouse liver microsomes
Procedure: as §1, §2

[5] = 40 /kg i.v., at death within 2 h
[6] = subcutaneous, 5 mg/kg b.w., plasma

## CC[C@H](C)CCCCC(=O)NCC(=O)N[C@H](CCN)C(=O)NCC(=O)N[C@H](CO)C(=O)N[C@H](Cc1c[nH]c2ccccc12)C(=O)N[C@@H](CO)C(=O)N[C@@H](CCN)C(=O)N[C@H](CCN)C(=O)N[C@H](C(=O)N[C@@H](CCC(=O)O)C(=O)N[C@H](C(=O)N[C@@H](C(=O)N[C@@H](CO)C(=O)O)[C@@H](C)CC)[C@@H](C)CC)[C@@H](C)CC [Tridecaptin M, tridecaptin M] (X1-G[dDab]G[dS][dW]S[Dab][dDab]IEI[d(aIle)]S-OH)
CYP2C9
  IC50: > 30 µM
CYP2C9; human
  inhibition at 25 min, 0.01 µM: < 0%
  inhibition at 25 min, 0.03 µM: 0.93%
  inhibition at 25 min, 0.1 µM: < 0%
  inhibition at 25 min, 0.3 µM: < 0%
  inhibition at 25 min, 1 µM: 0.05%
  inhibition at 25 min, 3 µM: < 0%
  inhibition at 25 min, 10 µM: 0.82%
  inhibition at 25 min, 30 µM: 25.6%
[1]
  CL: <11.55 µL/min/mg
In vitro; pH 7.4
  half-life: > 2 h
  remaining at 0.25 h: 86.4%
  remaining at 0.5 h: 76.5%
  remaining at 1 h: 70.1%
  remaining at 2 h: 58.8%
In vitro; pH 7.4, CL, rat liver microsomes
  microsomal CLint: < 11 µL/min/mg
[2]; 20 mg/kg i.v., 24 h
  Amylase (pooled serum): 3800 U/L
  BUN (pooled serum): 96 mg%
  CPK (pooled serum): 448 U/L
  CPK_MB (pooled serum): 420 U/L
  Glucose (pooled serum): 344 mg/dL
  LDH (pooled serum): 2120 U/L
  Lipase (pooled serum): 1016 U/L
  SGOT (pooled serum): 244 Units/L
  SGPT (pooled serum): 68 Units/L
[2]; 25 mg/kg or less i.v.
  outcome of i.v. administration: no visible signs of toxicity or mortality
[2]; 30 mg/kg i.v.
  clinical signs: abnormal motor behavior, including dragging of limbs
  survival time post-administration: 6 to 10 h
[2]; 40 mg/kg i.v.
  time to mortality: ≤ 2 h
[2]; 50 mg/kg i.v.
  outcome of i.v. administration: resulted in mortality
[2]; 100 mg/kg i.v.
  outcome of i.v. administration: immediately lethal
[2]; 25 /kg i.v., 24 h
  Amylase (pooled serum): 5144 U/L
  BUN (pooled serum): 112 mg%
  CPK (pooled serum): 712 U/L
  CPK_MB (pooled serum): 952 U/L
  Glucose (pooled serum): 248 mg/dL
  LDH (pooled serum): 3896 U/L
  Lipase (pooled serum): 972 U/L
  SGOT (pooled serum): 872^b Units/L
  SGPT (pooled serum): 208 Units/L
[2]; [5]
  Amylase (pooled serum): 1560 U/L
  BUN (pooled serum): 24 mg%
  CPK (pooled serum): 24,472 U/L
  CPK_MB (pooled serum): 1408 U/L
  Glucose (pooled serum): 152 mg/dL
  LDH (pooled serum): 3280 U/L
  Lipase (pooled serum): 368 U/L
  SGOT (pooled serum): 784 Units/L
  SGPT (pooled serum): 88 Units/L
[2]; i.v. administration
  histopathology of liver, kidney, heart and brain vs control: no significant morphological alterations
[2]; intravenous administration
  dose at which acute toxicity is seen: ≥ 30 mg/kg
K. pneumoniae
  MIC: 4 mg/L (≈ 2.69 µM)
  MIC90: 8 mg/L (≈ 5.37 µM)
  MIC range: 2 to 8 mg/L
  MIC values: 2 to 8 mg/L
intravenous, 5mg/kg b.w.
  Cmax relative to the MIC value: about 10 times
  time plasma concentration maintained above MIC (4µg/mL): about 4 h
intravenous, 5 mg/kg b.w., plasma, 5 mg/kg
  Cmax: 43.2 ± 6.02 µg/mL
[6]
  CL: 0.297 ± 0.0144 L/h/kg
  Vss: 2.63 ± 0.45 L/kg
subcutaneous, 5 mg/kg b.w., plasma, 5 mg/kg
  T1/2: 8.56 ± 1.60 h
[3]
  hemolysis: non-hemolytic
[4]
  CL: <11.55 µL/min/mg
